Data on 3 molecules can be found in publication PMC9400870 (2022).

Molecules are shown by their SMILES.

The test system of experiment [1] is p(dAdT)2 (DNA, polymer) AT. As to the kind of experiment: UV thermal denaturation, 260 nm. To be noted: Na+ (sodium cacodylate, I = 0.05 M), pH 7, polynucleotide 2×10^-5 M, per base.
The test system of experiment [2] is pApU (RNA, polymer) A/U. As to the kind of experiment: UV thermal denaturation, 260 nm. To be noted: Na+ (sodium cacodylate, I = 0.05 M), pH 7, per base.
The test system of experiment [3] is p(dAdT)2 (DNA, polymer) AT. Description: fluorimetric titration, Scatchard fit. The settings on record: Na+ (sodium cacodylate, I = 0.05 M); pH 7.0; compound 5×10^-7 M; n fixed at 0.1; per base.
In experiment [4] the test system is p(dGdC)2 (DNA, polymer) GC. As to the kind of experiment: fluorimetric titration, Scatchard fit. The settings on record: Na+ (sodium cacodylate, I = 0.05 M); pH 7.0; compound 5×10^-7 M; n fixed at 0.1; per base.
Experiment [5] concerns pApU (RNA, polymer) A/U. As to the kind of experiment: fluorimetric titration, Scatchard fit. To be noted: Na+ (sodium cacodylate, I = 0.05 M); pH 7.0; compound 5×10^-7 M; n fixed at 0.1; per base.
Where [6] appears, read: r [compound]/[polynucleotide] = 0.3.

As to `C[n+]1ccc(C#Cc2c(F)c(F)c(C#Cc3cc[n+](C)cc3)c(F)c2F)cc1`, the ΔTm in experiment [1] (setting [6]) is 7.0 ± 0.5 °C; in experiment [2] (setting [6]) it was 1.0 ± 0.5 °C. Further, the “log Ks” value in experiment [3] is 5.2 M^-1; in experiment [4] it was 5.1 M^-1; in experiment [5], 5.0 M^-1.
For the molecule `C[n+]1ccc(C#Cc2c3ccccc3c(C#Cc3cc[n+](C)cc3)c3ccccc23)cc1`, the ΔTm in experiment [1] (r [compound]/[polynucleotide] = 0.2) is 37 ± 0.5 °C; in experiment [2] (r [compound]/[polynucleotide] = 0.2, polynucleotide 2×10^-5 M) it was 39.0 ± 0.5 °C. Moreover, the “log Ks” value in experiment [3] was 6.6 M^-1; in experiment [4], 7.0 M^-1; in experiment [5] it was 5.3 M^-1.
Turning to `C[n+]1ccc(C#Cc2ccc(C#Cc3cc[n+](C)cc3)cc2)cc1`, the ΔTm in experiment [1] (setting [6]) amounted to 2.0 ± 0.5 °C; in experiment [2] (setting [6]), 0 ± 0.5 °C. For the same molecule, the “log Ks” value is 4.5 M^-1 in experiment [3], 5.9 M^-1 in experiment [4] and 5.3 M^-1 in experiment [5].
